In article PMC7997453 (Pharmaceuticals, 2021):
Like-named read-outs stand apart in the source and are kept apart here.

What was measured:
[1] = parameters: method as in PMID 25028625; settings: cited from earlier work
[2] = cited from earlier work
Caco-2 cell line = settings: cited from earlier work; for Papp,caco-2,(pH 7.4:7.4): ref supplement 7
[3] = octanol/water partition coefficient; type: physicochemical; settings: In-house data
CYP3A5 [4] = target: T1, CYP3A5 (Homo sapiens, UniProt P20815); test: Reversible inhibition (RI) assay on tacrolimus metabolism, CYP3A5*1/*3 HLM with CYP3cide
T1 sequence (P20815 whole entry): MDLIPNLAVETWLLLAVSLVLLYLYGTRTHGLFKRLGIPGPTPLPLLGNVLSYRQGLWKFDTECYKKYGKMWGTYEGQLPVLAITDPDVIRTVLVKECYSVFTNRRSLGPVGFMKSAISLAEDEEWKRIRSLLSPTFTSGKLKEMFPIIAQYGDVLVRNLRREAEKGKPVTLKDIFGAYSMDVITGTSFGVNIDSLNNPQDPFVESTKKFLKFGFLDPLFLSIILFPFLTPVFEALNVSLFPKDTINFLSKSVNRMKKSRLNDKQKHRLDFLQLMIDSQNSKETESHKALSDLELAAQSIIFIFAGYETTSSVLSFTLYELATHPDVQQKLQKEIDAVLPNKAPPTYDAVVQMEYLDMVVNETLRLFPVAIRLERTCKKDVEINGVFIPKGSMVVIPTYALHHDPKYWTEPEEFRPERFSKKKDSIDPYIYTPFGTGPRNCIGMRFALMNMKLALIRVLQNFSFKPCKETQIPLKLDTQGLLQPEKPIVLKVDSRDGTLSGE
Experimental: (§3) The reactions were started with the addition of nicotinamide adenine dinucleotide phosphate (NADPH, 1 mM) and stopped 10 min later upon adding a double volume of ice-cold methanol. […] Reactions were terminated with the same method as the CYP3A4 group. All incubations were carried out in triplicate. […] Dixon plots were used to analyze the inhibitory type of RI assay and Ki value.

CYP3A = system: CYP3A; parameters: method as in PMID 15342469; settings: cited from earlier work
[5] = intrinsic clearance in human liver microsomes; type: in vitro ADME; settings: In-house data, read-out: CLint,HLM
CYP3A5 [6] = target: T1, CYP3A5; test: Time-dependent inhibition (TDI) assay, testosterone-6β-hydroxylation, CYP3A5*1/*3 HLM with CYP3cide; type: biochemical
Experimental: (§1) Testosterone-6β-hydroxylation was used to measure the activity of CYP3A4 and CYP3A5. […] With the corresponding double-reciprocal plot, the derived kinetic constants from the inactivation experiments were estimated.
(§2) Two-step incubation was performed to evaluate the TDI assay. […] After pre-incubation for 3 min at 37 °C in a shaking water bath, the enzymatic reaction was started upon adding NADPH (1 mM) with various pre-reaction time (0, 5, 10, 20, 30 min). For TDI on CYP3A5, NADPH (1 mM) was added to the incubation which contained CYP3A5*1/*3 HLM (0.5 mg/mL) and CYP3cide (1.2 μM) after being pre-warmed for 3 min. […] Next step, an aliquot (20 μL) of the primary pre-reaction mixture was transferred to 180 μL of the secondary incubation system which consisted of PBS (0.1 M), testosterone (200 μM) and NADPH (1 mM). The secondary reaction was incubated at 37 °C for 10 min and terminated by adding 400 μL ice-cold acetonitrile containing prednisolone as the internal standard (0.3150 μM for CYP3A5*3/*3 HLM incubation and 0.07875 μM for CYP3A5*1/*3 HLM incubation). […] The observed inactivation rate of the affected enzyme (kobs) was the negative slope of the linear regression. kinact and KI were calculated using Equation (1) by the double-reciprocal plot. I represents the concentration of the inhibitor. (1) kobs=kinact×I/[…]

CYP3A4 [7] = target: T2, CYP3A4 (Homo sapiens, UniProt P08684); test: Time-dependent inhibition (TDI) assay, testosterone-6β-hydroxylation, CYP3A5*3/*3 HLM; type: biochemical
T2 sequence (P08684 whole entry): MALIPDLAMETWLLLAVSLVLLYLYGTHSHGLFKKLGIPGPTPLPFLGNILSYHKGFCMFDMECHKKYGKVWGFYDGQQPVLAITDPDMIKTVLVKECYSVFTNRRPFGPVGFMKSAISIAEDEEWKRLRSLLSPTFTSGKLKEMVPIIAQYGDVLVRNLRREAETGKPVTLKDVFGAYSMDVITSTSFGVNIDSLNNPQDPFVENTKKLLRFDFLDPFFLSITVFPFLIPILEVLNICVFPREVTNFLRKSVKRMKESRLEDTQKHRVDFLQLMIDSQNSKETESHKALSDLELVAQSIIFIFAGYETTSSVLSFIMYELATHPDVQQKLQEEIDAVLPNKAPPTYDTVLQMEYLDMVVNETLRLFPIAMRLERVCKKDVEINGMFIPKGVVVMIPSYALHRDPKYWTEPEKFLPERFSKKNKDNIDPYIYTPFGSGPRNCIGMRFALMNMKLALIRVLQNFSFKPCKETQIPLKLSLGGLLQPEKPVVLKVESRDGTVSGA
Experimental: as §1, §2

CYP3A4 [8] = target: T2, CYP3A4; test: Reversible inhibition (RI) assay on tacrolimus metabolism, CYP3A5*3/*3 HLM
Experimental: as §3

[9] = parameters: method as in PMID 12676880; settings: cited from earlier work
[10] = parameters: method as in supplement 4; settings: ref supplement 4; cited from earlier work
CYP3A5 [11] = settings: cited from earlier work; for Km: unbound Michaelis constant
[12] = parameters: method as in supplement 5; settings: ref supplement 5; cited from earlier work
[13] = ref supplement 4; cited from earlier work
CYP3A4 [14] = system: CYP3A4; parameters: method as in earlier work; settings: ref 3 (supplement ref 8), cited from earlier work; for Km: unbound Michaelis constant
[15] = parameters: method as in supplement 6; settings: ref supplement 6; cited from earlier work
[16] = cited from earlier work; remark: listed apart in the source
[17] = 0.125 μM STA, 0.2 μM tacrolimus
[18] = 0.125 μM STA, 0.4 μM tacrolimus
[19] = 0.125 μM STA, 0.8 μM tacrolimus
[20] = 0.125 μM STA, 1.6 μM tacrolimus
[21] = single oral dose 1 mg, CYP3A5 expressers
[22] = single oral dose 1 mg, CYP3A5 non-expressers
[23] = single oral dose 2 mg, CYP3A5 expressers
[24] = single oral dose 2 mg, CYP3A5 non-expressers
[25] = single oral dose 5 mg, CYP3A5 expressers
[26] = single oral dose 5 mg, CYP3A5 non-expressers

Clc1ccccc1C(c1ccccc1)(c1ccccc1)n1ccnc1 [Clotrimazole]
inhibition on tacrolimus metabolism, CYP3A5 non-expresser patients versus expressers [1]: significantly greater inhibition

COc1cc2c(c(OC)c1OC)-c1c(cc3c(c1OC)OCO3)CC(C)C(C)(O)C2OC(=O)c1ccccc1 (stereo not drawn) [STA, schisantherin A]
fu plasma ([2]; ref supplement 2): 0.083 | Papp,caco-2 (Caco-2 cell line; ref supplement 3): 34.41 ×10⁻⁶ cm/s | logP [3]: 1.7 | Ki (CYP3A5 [4]): 110 nM | Dixon plot data point, Figure 2B, Mean (CYP3A5 [4]; [17]): 15.0000 | Dixon plot data point, Figure 2B, Mean (CYP3A5 [4]; [18]): 14.0109 | Dixon plot data point, Figure 2B, Mean (CYP3A5 [4]; [19]): 7.5773 | Dixon plot data point, Figure 2B, Mean (CYP3A5 [4]; [20]): 5.6992 | Dixon plot data point, Figure 2B, Mean (CYP3A5 [4]; 0.25 μM STA, 0.2 μM tacrolimus): 23.2012 | Dixon plot data point, Figure 2B, Mean (CYP3A5 [4]; 0.25 μM STA, 0.4 μM tacrolimus): 15.6487 | Dixon plot data point, Figure 2B, Mean (CYP3A5 [4]; 0.25 μM STA, 0.8 μM tacrolimus): 12.0521 | Dixon plot data point, Figure 2B, Mean (CYP3A5 [4]; 0.25 μM STA, 1.6 μM tacrolimus): 5.8700 | Dixon plot data point, Figure 2B, Mean (CYP3A5 [4]; 0.5 μM STA, 0.2 μM tacrolimus): 30.8928 | Dixon plot data point, Figure 2B, Mean (CYP3A5 [4]; 0.5 μM STA, 0.4 μM tacrolimus): 26.2841 | Dixon plot data point, Figure 2B, Mean (CYP3A5 [4]; 0.5 μM STA, 0.8 μM tacrolimus): 14.9975 | Dixon plot data point, Figure 2B, Mean (CYP3A5 [4]; 0.5 μM STA, 1.6 μM tacrolimus): 8.0120 | reversible inhibition on CYP3A5 (in words) (CYP3A5 [4]; CYP3A5*1/*3 HLM with CYP3cide, substrate tacrolimus): competitive reversible inhibition | KI (inactivation) (CYP3A; erythromycin N-demethylation, read-out: inhibitor concentration causing half-maximal inactivation (KI)): 399 nM | kinact/KI (CYP3A; erythromycin probe substrate): 3843 M⁻¹ s⁻¹ | Ki (CYP3A; reversible inhibition of CYP3A, the substrate is erythromycin, read-out: inhibitory constant (Ki)): 49 nM | microsomal CLint [5]: 24 µL/min/mg | TDI profile on CYP3A5 (in words) (CYP3A5 [6]): not observed | TDI profile on CYP3A4 (in words) (CYP3A4 [7]): potent TDI | log of percentage of control activity, Figure 3A, Mean (CYP3A4 [7]; 0.25 μM STA, pre-incubation 0 min): 4.6010 | log of percentage of control activity, Figure 3A, Mean (CYP3A4 [7]; 0.25 μM STA, pre-incubation 5 min): 4.4164 | log of percentage of control activity, Figure 3A, Mean (CYP3A4 [7]; 0.25 μM STA, pre-incubation 10 min): 4.3386 | log of percentage of control activity, Figure 3A, Mean (CYP3A4 [7]; 0.25 μM STA, pre-incubation 20 min): 4.2986 | log of percentage of control activity, Figure 3A, Mean (CYP3A4 [7]; 0.25 μM STA, pre-incubation 30 min): 4.2407 | log of percentage of control activity, Figure 3A, Mean (CYP3A4 [7]; 0.5 μM STA, pre-incubation 0 min): 4.6010 | log of percentage of control activity, Figure 3A, Mean (CYP3A4 [7]; 0.5 μM STA, pre-incubation 5 min): 4.2393 | log of percentage of control activity, Figure 3A, Mean (CYP3A4 [7]; 0.5 μM STA, pre-incubation 10 min): 4.0778 | log of percentage of control activity, Figure 3A, Mean (CYP3A4 [7]; 0.5 μM STA, pre-incubation 20 min): 3.9359 | log of percentage of control activity, Figure 3A, Mean (CYP3A4 [7]; 0.5 μM STA, pre-incubation 30 min): 3.9183 | log of percentage of control activity, Figure 3A, Mean (CYP3A4 [7]; 1 μM STA, pre-incubation 0 min): 4.5902 | log of percentage of control activity, Figure 3A, Mean (CYP3A4 [7]; 1 μM STA, pre-incubation 5 min): 4.1658 | log of percentage of control activity, Figure 3A, Mean (CYP3A4 [7]; 1 μM STA, pre-incubation 10 min): 4.0515 | log of percentage of control activity, Figure 3A, Mean (CYP3A4 [7]; 1 μM STA, pre-incubation 20 min): 3.8785 | log of percentage of control activity, Figure 3A, Mean (CYP3A4 [7]; 1 μM STA, pre-incubation 30 min): 3.5554 | log of percentage of control activity, Figure 3A, Mean (CYP3A4 [7]; 2 μM STA, pre-incubation 0 min): 4.6052 | log of percentage of control activity, Figure 3A, Mean (CYP3A4 [7]; 2 μM STA, pre-incubation 5 min): 4.0322 | log of percentage of control activity, Figure 3A, Mean (CYP3A4 [7]; 2 μM STA, pre-incubation 10 min): 3.5615 | log of percentage of control activity, Figure 3A, Mean (CYP3A4 [7]; 2 μM STA, pre-incubation 20 min): 3.1694 | log of percentage of control activity, Figure 3A, Mean (CYP3A4 [7]; 2 μM STA, pre-incubation 30 min): 3.0051 | kinact/KI (CYP3A4 [7]; CYP3A4): 748.3 M⁻¹ s⁻¹ | KI (CYP3A4 [7]; CYP3A4, testosterone-6β-hydroxylation): 2450 nM | kinact (CYP3A4 [7]; human, CYP3A5*3/*3 human liver microsomes, probe testosterone (200 μM), CYP3A4, testosterone-6β-hydroxylation): 0.00183 s⁻¹ | Ki (CYP3A4 [8]): 150 nM | Dixon plot data point, Figure 2A, Mean (CYP3A4 [8]; [17]): 17.0000 | Dixon plot data point, Figure 2A, Mean (CYP3A4 [8]; [18]): 9.0441 | Dixon plot data point, Figure 2A, Mean (CYP3A4 [8]; [19]): 7.1353 | Dixon plot data point, Figure 2A, Mean (CYP3A4 [8]; [20]): 2.6233 | Dixon plot data point, Figure 2A, Mean (CYP3A4 [8]; 0.25 μM STA, 0.2 μM tacrolimus): 21.0000 | Dixon plot data point, Figure 2A, Mean (CYP3A4 [8]; 0.25 μM STA, 0.4 μM tacrolimus): 14.8861 | Dixon plot data point, Figure 2A, Mean (CYP3A4 [8]; 0.25 μM STA, 0.8 μM tacrolimus): 8.3071 | Dixon plot data point, Figure 2A, Mean (CYP3A4 [8]; 0.25 μM STA, 1.6 μM tacrolimus): 3.9072 | Dixon plot data point, Figure 2A, Mean (CYP3A4 [8]; 0.5 μM STA, 0.2 μM tacrolimus): 35.0000 | Dixon plot data point, Figure 2A, Mean (CYP3A4 [8]; 0.5 μM STA, 0.4 μM tacrolimus): 23.9051 | Dixon plot data point, Figure 2A, Mean (CYP3A4 [8]; 0.5 μM STA, 0.8 μM tacrolimus): 13.9244 | Dixon plot data point, Figure 2A, Mean (CYP3A4 [8]; 0.5 μM STA, 1.6 μM tacrolimus): 5.0160 | reversible inhibition on CYP3A4 (in words) (CYP3A4 [8]; CYP3A5*3/*3 HLM, substrate tacrolimus): competitive reversible inhibition

CC(=O)N1CCN(c2ccc(OCC3COC(Cn4ccnc4)(c4ccc(Cl)cc4Cl)O3)cc2)CC1 (stereo not drawn) [ketoconazole]
inhibition (tacrolimus level), CYP3A5 non-expressers versus expressers [9]: more significant inhibition

Cc1ncc2n1-c1ccc(Cl)cc1C(c1ccccc1F)=NC2 [midazolam]
Papp,caco-2,(pH 7.4:7.4) (Caco-2 cell line): 32.4 ×10-6cm/s

C=CC[C@@H]1/C=C(\C)C[C@H](C)C[C@H](OC)[C@H]2O[C@@](O)(C(=O)C(=O)N3CCCC[C@H]3C(=O)O[C@H](/C(C)=C/[C@@H]3CC[C@@H](O)[C@H](OC)C3)[C@H](C)[C@@H](O)CC1=O)[C@H](C)C[C@@H]2OC [tacrolimus]
B/P [10]: 35 | fu plasma ([2]; ref supplement 4): 0.013 | Papp,caco-2,(pH 7.4:7.4) (Caco-2 cell line): 13.1 ×10-6cm/s | CYP3A5 12-HT Vmax (CYP3A5 [11]; 12-hydroxy tacrolimus formation, ref 3 (supplement ref 8)): 1.4 pmol/min/pmol | CYP3A5 13-DMT Vmax (CYP3A5 [11]; 13-O-desmethyl tacrolimus formation, ref 3 (supplement ref 8)): 17 pmol/min/pmol | intrinsic clearance of tacrolimus by CYP3A5 versus CYP3A4 (CYP3A5 [11]; in vitro): more than two-fold faster | Km (CYP3A5 [11]; ref 3 (supplement ref 8), read-out: CYP3A5 12-HT Km,u): 0.35 µM | Km (CYP3A5 [11]; ref 3 (supplement ref 8), read-out: CYP3A5 13-DMT Km,u): 0.21 µM | fu gut [12]: 1 | LogPo:w [13]: 3.26 | CYP3A4 12-HT Vmax (CYP3A4 [14]; 12-hydroxy tacrolimus formation): 0.6 pmol/min/pmol | CYP3A4 13-DMT Vmax (CYP3A4 [14]; 13-O-desmethyl tacrolimus formation): 8 pmol/min/pmol | Km (CYP3A4 [14]; read-out: CYP3A4 12-HT Km,u): 0.29 µM | Km (CYP3A4 [14]; read-out: CYP3A4 13-DMT Km,u): 0.21 µM | Intrinsic solubility [15]: 12 µg/mL | AUC Obs (Observed) [16, 21]: 19.34 ng·h/mL | Cmax Obs (Observed) [16, 21]: 3.88 ng/mL | Tmax Obs (Observed) [16, 21]: 1.75 h | AUC Obs (Observed) [16, 22]: 30.34 ng·h/mL | Cmax Obs (Observed) [16, 22]: 5.52 ng/mL | Tmax Obs (Observed) [16, 22]: 1.5 h | AUC Obs (Observed) [16, 23]: 60.83 ng·h/mL | Cmax Obs (Observed) [16, 23]: 14.09 ng/mL | Tmax Obs (Observed) [16, 23]: 1.26 h | AUC Obs (Observed) [16, 24]: 119.02 ng·h/mL | Cmax Obs (Observed) [16, 24]: 24.28 ng/mL | Tmax Obs (Observed) [16, 24]: 1.35 h | AUC Obs (Observed) [16, 25]: 90.40 ng·h/mL | Cmax Obs (Observed) [16, 25]: 20.8 ng/mL | Tmax Obs (Observed) [16, 25]: 1.40 h | AUC Obs (Observed) [16, 26]: 134.77 ng·h/mL | Cmax Obs (Observed) [16, 26]: 27.90 ng/mL | Tmax Obs (Observed) [16, 26]: 1.30 h
